Results taken from patent US8865756B2, “Inhibitors of HCV NS5A” (Presidio Pharmaceuticals, Inc., priority 2008, dated 2014).

Tested on: HCV 1b_Huh-Luc/Neo-ET cell line persistently expressing a bicistronic genotype 1b replicon in Huh 7 cells
Experiment: HCV replicon assay (luciferase readout)
Assay type: cell-based
Conditions: Hepatitis C virus, Huh-7, 72 h, read-out: Inhibition of HCV genotype 1b
Protocol: Biological activity of the compounds of the invention was determined using an HCV replicon assay. The HCV 1b_Huh-Luc/Neo-ET cell line persistently expressing a bicistronic genotype 1b replicon in Huh 7 cells was obtained from ReBLikon GMBH. This cell line was used to test compound inhibition using luciferase enzyme activity readout as a measurement of compound inhibition of replicon levels.
On Day 1 (the day after plating), each compound is added in triplicate to the cells. Plates incubated for 72 h prior to running the luciferase assay. Enzyme activity was measured using a Bright-Glo Kit (cat. number E2620) manufactured by Promega Corporation. The following equation was used to generate a percent control value for each compound. % Control=(Average Compound Value/Average Control)*100
The EC50 value was determined using GraphPad Prism and the following equation: Y=Bottom+(Top−Bottom)/(1+10^((Log IC50−X)*HillSlope))
EC50 values of compounds are determined several times in the replicon assay.
Example compounds of the disclosed invention are illustrated in Tables 1-14 attached as appendices. The tables show inhibitory activity of many of the example compounds with respect to HCV 1b. […] The tables further provide mass spectrometry results for the synthesized example compounds.

Row | SMILES | EC50 [nM]
1 | CC(C)[C@@H](NC(=O)C1CC1)C(=O)N1CCC[C@H]1c1ncc(-c2ccc(C#Cc3ccc(-c4cnc([C@@H]5CCCN5C(=O)[C@H](NC(=O)C5CC5)C(C)C)[nH]4)cc3)cc2)[nH]1 [Compound 155] | 1 to 9.9
2 | COC(=O)N[C@@H](C(=O)N1CCC[C@H]1c1ncc(-c2ccc(C#Cc3ccc(-c4cnc([C@@H]5CCCN5C(=O)[C@H](NC(=O)OC)c5ccccc5)[nH]4)cc3)cc2)[nH]1)c1ccccc1 [Compound 156] | < 1
3 | O=C([C@H](O)c1ccccc1)N1CCC[C@H]1c1ncc(-c2ccc(C#Cc3ccc(-c4cnc([C@@H]5CCCN5C(=O)[C@H](O)c5ccccc5)[nH]4)cc3)cc2)[nH]1 [Compound 157] | < 1
4 | CC(=O)N[C@@H](C(=O)N1CCC[C@H]1c1ncc(-c2ccc(C#Cc3ccc(-c4cnc([C@@H]5CCCN5C(=O)[C@H](NC(C)=O)c5ccccc5)[nH]4)cc3)cc2)[nH]1)c1ccccc1 [Compound 158] | < 1
5 | CN1CCN(C(=O)N[C@@H](C(=O)N2CCC[C@H]2c2ncc(-c3ccc(C#Cc4ccc(-c5cnc([C@@H]6CCCN6C(=O)[C@H](NC(=O)N6CCN(C)CC6)c6ccccc6)[nH]5)cc4)cc3)[nH]2)c2ccccc2)CC1 [Compound 159] | < 1
6 | CN(C)[C@@H](C(=O)N1CCC[C@H]1c1ncc(-c2ccc(C#Cc3ccc(-c4cnc([C@@H]5CCCN5C(=O)[C@@H](c5ccccc5)N(C)C)[nH]4)cc3)cc2)[nH]1)c1ccccc1 [Compound 160] | < 1
7 | CN(C)C(=O)N[C@@H](C(=O)N1CCC[C@H]1c1ncc(-c2ccc(C#Cc3ccc(-c4cnc([C@@H]5CCCN5C(=O)[C@H](NC(=O)N(C)C)c5ccccc5)[nH]4)cc3)cc2)[nH]1)c1ccccc1 [Compound 161] | < 1
8 | CNC(=O)N[C@@H](C(=O)N1CCC[C@H]1c1ncc(-c2ccc(C#Cc3ccc(-c4cnc([C@@H]5CCCN5C(=O)[C@H](NC(=O)NC)c5ccccc5)[nH]4)cc3)cc2)[nH]1)c1ccccc1 [Compound 162] | < 1
9 | CC(C)(C)OC(=O)N[C@@H](C(=O)N1CCC[C@H]1C(=O)Nc1ccc(C#Cc2ccc(-c3cnc([C@@H]4CCCN4C(=O)[C@H](NC(=O)OC(C)(C)C)c4ccccc4)[nH]3)cc2)cc1)c1ccccc1 [Compound 163] | < 1
10 | CC(C)[C@H](NC(=O)OC(C)(C)C)C(=O)N1CCC[C@H]1c1ncc(-c2ccc(C#Cc3ccc(-c4cnc([C@@H]5CCCN5C(=O)[C@@H](NC(=O)OC(C)(C)C)C(C)C)[nH]4)cc3)cc2)[nH]1 [Compound 165] | 10 to 999
11 | O=C(N[C@@H](C(=O)N1CCC[C@H]1C(=O)Nc1ccc(C#Cc2ccc(-c3cnc([C@@H]4CCCN4C(=O)[C@H](NC(=O)C4CC4)c4ccccc4)[nH]3)cc2)cc1)c1ccccc1)C1CC1 [Compound 166] | < 1
12 | C[C@@H](NC(=O)[C@@H]1CCCN1C(=O)[C@H](NC(=O)OC(C)(C)C)c1ccccc1)c1ccc(C#Cc2ccc(-c3cnc([C@@H]4CCCN4C(=O)[C@H](NC(=O)OC(C)(C)C)c4ccccc4)[nH]3)cc2)cc1 [Compound 167] | 1 to 9.9
13 | C[C@@H](NC(=O)[C@@H]1CCCN1C(=O)[C@H](NC(=O)C1CC1)c1ccccc1)c1ccc(C#Cc2ccc(-c3cnc([C@@H]4CCCN4C(=O)[C@H](NC(=O)C4CC4)c4ccccc4)[nH]3)cc2)cc1 [Compound 168] | < 1
14 | C[C@H](NC(=O)[C@@H]1CCCN1C(=O)[C@H](NC(=O)OC(C)(C)C)c1ccccc1)c1ccc(C#Cc2ccc(-c3cnc([C@@H]4CCCN4C(=O)[C@H](NC(=O)OC(C)(C)C)c4ccccc4)[nH]3)cc2)cc1 [Compound 169] | 1 to 9.9
15 | CC(C)[C@H](NC(=O)C1CC1)C(=O)N1CCC[C@H]1c1ncc(-c2ccc(C#Cc3ccc(-c4cnc([C@@H]5CCCN5C(=O)[C@@H](NC(=O)C5CC5)C(C)C)[nH]4)cc3)cc2)[nH]1 [Compound 170] | 1 to 9.9
16 | COC(=O)N[C@@H](C(=O)N1CCC[C@H]1C(=O)Nc1ccc(C#Cc2ccc(-c3cnc([C@@H]4CCCN4C(=O)[C@H](NC(=O)OC)c4ccccc4)[nH]3)cc2)cc1)c1ccccc1 [Compound 171] | < 1
17 | CO[C@@H](C(=O)N1CCC[C@H]1c1ncc(-c2ccc(C#Cc3ccc(-c4cnc([C@@H]5CCCN5C(=O)[C@H](OC)c5ccccc5)[nH]4)cc3)cc2)[nH]1)c1ccccc1 [Compound 172] | < 1
18 | CCN(CC)[C@@H](C(=O)N1CCC[C@H]1c1ncc(-c2ccc(C#Cc3ccc(-c4cnc([C@@H]5CCCN5C(=O)[C@@H](c5ccccc5)N(CC)CC)[nH]4)cc3)cc2)[nH]1)c1ccccc1 [Compound 173] | < 1
19 | COC(=O)N[C@@H](C(=O)N1CCC[C@H]1c1ncc(-c2ccc(C#Cc3ccc(-c4cnc([C@@H]5CCCN5C(=O)[C@@H](c5ccccc5)N(C)C)[nH]4)cc3)cc2)[nH]1)c1ccccc1 [Compound 174] | < 1
20 | CCN(CC)[C@@H](C(=O)N1CCC[C@H]1c1ncc(-c2ccc(C#Cc3ccc(-c4cnc([C@@H]5CCCN5C(=O)[C@H](NC(=O)OC)c5ccccc5)[nH]4)cc3)cc2)[nH]1)c1ccccc1 [Compound 175] | < 1

Row | SMILES | EC50 [nM]
21 | COC(=O)N[C@@H](C(=O)N1CCC[C@H]1c1ncc(-c2ccc(C#Cc3ccc(-c4cnc([C@@H]5CCCN5C(=O)c5nccn5C)[nH]4)cc3)cc2)[nH]1)c1ccccc1 [Compound 176] | < 1
22 | COC(=O)N[C@@H](C(=O)N1CCC[C@H]1c1ncc(-c2ccc(C#Cc3ccc(-c4cnc([C@@H]5CCCN5C(=O)[C@H]5CCCO5)[nH]4)cc3)cc2)[nH]1)c1ccccc1 [Compound 177] | < 1
23 | COC(=O)N[C@@H](C(=O)N1CCC[C@H]1c1ncc(-c2ccc(C#Cc3ccc(-c4cnc([C@@H]5CCCN5C(=O)[C@@H](c5ccccc5)N5CCCC5)[nH]4)cc3)cc2)[nH]1)c1ccccc1 [Compound 178] | < 1
24 | COC(=O)N[C@@H](C(=O)N1CCC[C@H]1c1ncc(-c2ccc(C#Cc3ccc(-c4cnc([C@@H]5CCCN5C(=O)[C@H](OC)c5ccccc5)[nH]4)cc3)cc2)[nH]1)c1ccccc1 [Compound 179] | < 1
25 | COC(=O)N[C@H](Cc1ccccc1)C(=O)N1CCC[C@H]1c1ncc(-c2ccc(C#Cc3ccc(-c4cnc([C@@H]5CCCN5C(=O)[C@H](NC(=O)OC)c5ccccc5)[nH]4)cc3)cc2)[nH]1 [Compound 180] | < 1
26 | COC(=O)N[C@@H](C(=O)N1CCC[C@H]1c1ncc(-c2ccc(C#Cc3ccc(-c4cnc([C@@H]5CCCN5C(=O)Cc5cccnc5)[nH]4)cc3)cc2)[nH]1)c1ccccc1 [Compound 181] | < 1
27 | COC(=O)N[C@@H](C(=O)N1CCC[C@H]1c1ncc(-c2ccc(C#Cc3ccc(-c4cnc([C@@H]5CCCN5C(=O)C5CCN(C)CC5)[nH]4)cc3)cc2)[nH]1)c1ccccc1 [Compound 182] | < 1
28 | COC(=O)N[C@@H](C(=O)N1CCC[C@H]1c1ncc(-c2ccc(C#Cc3ccc(-c4cnc([C@@H]5CCCN5C(=O)c5cccnc5)[nH]4)cc3)cc2)[nH]1)c1ccccc1 [Compound 183] | < 1
29 | O=C([C@@H](c1ccccc1)N1CCOCC1)N1CCC[C@H]1c1ncc(-c2ccc(C#Cc3ccc(-c4cnc([C@@H]5CCCN5C(=O)[C@@H](c5ccccc5)N5CCOCC5)[nH]4)cc3)cc2)[nH]1 [Compound 184] | < 1
30 | COC(=O)N[C@@H](C(=O)N1CCC[C@H]1c1ncc(-c2ccc(C#Cc3ccc(-c4cnc([C@@H]5CCCN5C(=O)[C@@H](c5ccccc5)N5CCOCC5)[nH]4)cc3)cc2)[nH]1)c1ccccc1 [Compound 185] | < 1
31 | COC(=O)N[C@@H](C(=O)N1CCC[C@H]1c1ncc(-c2ccc(C#Cc3ccc(-c4cnc([C@@H]5CCCN5C(=O)[C@@H]5CCCO5)[nH]4)cc3)cc2)[nH]1)c1ccccc1 [Compound 186] | < 1
32 | COC(=O)N[C@@H](C(=O)N1CCC[C@H]1c1ncc(-c2ccc(C#Cc3ccc(-c4cnc([C@@H]5CCCN5C(=O)[C@H]5CCCN5C)[nH]4)cc3)cc2)[nH]1)c1ccccc1 [Compound 187] | < 1
33 | COC(=O)N[C@@H](C(=O)N1CCC[C@H]1c1ncc(-c2ccc(C#Cc3ccc(-c4cnc([C@@H]5CCCN5C(=O)[C@@H](c5ccccc5)N5CCCCC5)[nH]4)cc3)cc2)[nH]1)c1ccccc1 [Compound 188] | < 1
34 | CC(C)(C)OC(=O)N[C@@H](C(=O)N1CCC[C@H]1C(=O)NCc1ccc(C#Cc2ccc(-c3cnc([C@@H]4CCCN4C(=O)[C@H](NC(=O)OC(C)(C)C)c4ccccc4)[nH]3)cc2)cc1)c1ccccc1 [Compound 189] | < 1
35 | O=C(N[C@@H](C(=O)N1CCC[C@H]1C(=O)NCc1ccc(C#Cc2ccc(-c3cnc([C@@H]4CCCN4C(=O)[C@H](NC(=O)C4CC4)c4ccccc4)[nH]3)cc2)cc1)c1ccccc1)C1CC1 [Compound 190] | < 1
36 | C[C@H](NC(=O)[C@@H]1CCCN1C(=O)[C@H](NC(=O)C1CC1)c1ccccc1)c1ccc(C#Cc2ccc(-c3cnc([C@@H]4CCCN4C(=O)[C@H](NC(=O)C4CC4)c4ccccc4)[nH]3)cc2)cc1 [Compound 191] | < 1
37 | CC(C)(C)OC(=O)N[C@@H](C(=O)N1CCC[C@H]1CNC(=O)c1ccc(C#Cc2ccc(-c3cnc([C@@H]4CCCN4C(=O)[C@H](NC(=O)OC(C)(C)C)c4ccccc4)[nH]3)cc2)cc1)c1ccccc1 [Compound 192] | 1 to 9.9
38 | O=C(NC[C@@H]1CCCN1C(=O)[C@H](NC(=O)C1CC1)c1ccccc1)c1ccc(C#Cc2ccc(-c3cnc([C@@H]4CCCN4C(=O)[C@H](NC(=O)C4CC4)c4ccccc4)[nH]3)cc2)cc1 [Compound 193] | < 1
39 | O=C([C@@H](c1ccccc1)N1CCCC1)N1CCC[C@H]1c1ncc(-c2ccc(C#Cc3ccc(-c4cnc([C@@H]5CCCN5C(=O)[C@@H](c5ccccc5)N5CCCC5)[nH]4)cc3)cc2)[nH]1 [Compound 194] | < 1
